Counter-ions that a name gives are not always drawn. Like-named read-outs stand apart in the source and are kept apart here.

This note sets out measurements from patent US20110021565A1, “PIPERIDINE DERIVATIVES AS NK3 ANTAGONISTS” (priority 2007, published 2011).

For this assay, the target named is T1, recombinant human NK3 receptor (Homo sapiens, UniProt P29371).
T1 construct: expressed in transfected cells; host or cells: HEK293 cells, transient expression; membrane preparation
T1 sequence (P29371 1-465): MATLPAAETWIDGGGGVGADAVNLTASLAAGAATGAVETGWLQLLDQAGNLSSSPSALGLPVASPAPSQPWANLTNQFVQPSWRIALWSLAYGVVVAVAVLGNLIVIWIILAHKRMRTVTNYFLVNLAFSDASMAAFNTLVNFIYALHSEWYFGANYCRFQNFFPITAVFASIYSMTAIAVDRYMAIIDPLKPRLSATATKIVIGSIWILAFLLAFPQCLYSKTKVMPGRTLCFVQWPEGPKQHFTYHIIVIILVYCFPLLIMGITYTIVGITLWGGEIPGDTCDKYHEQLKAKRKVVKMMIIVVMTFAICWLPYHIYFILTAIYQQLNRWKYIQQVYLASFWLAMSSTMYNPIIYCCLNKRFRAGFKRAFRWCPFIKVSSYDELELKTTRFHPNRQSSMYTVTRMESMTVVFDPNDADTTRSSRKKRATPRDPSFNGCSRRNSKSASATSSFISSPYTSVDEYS
Description: [3H]SR142801 competition binding assay. The essentials:
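Membranes from HEK293 cells transiently expressing the receptor (5 μg protein/well) incubated 75 min at RT with [3H]SR142801 at its KD and 10 compound concentrations (0.0003-10 μM), in pH 7.4 Tris buffer with MnCl2, phosphoramidon and BSA. Nonspecific binding defined with 10 μM SB222200; bound radioactivity counted after filtration. Ki from IC50 via Cheng-Prusoff; duplicates.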

Where [1] appears, read: [3H]SR142801, membranes of HEK293 cells transiently expressing recombinant human NK3 receptor, read-out: hNK3 Ki.
Setting [2] is: representative compounds, [3H]SR142801, HEK293 membranes, human NK3 receptor, read-out: Ki NK3 h.

Broadly, the Ki is the equilibrium dissociation constant of an inhibitor or competing ligand from its target. Turning to `CN(Cc1ccc(F)c(C(F)(F)F)c1)C(=O)C(F)(CCN1CCC(N(C)S(C)(=O)=O)CC1)c1ccc(Cl)c(Cl)c1` (centres unmarked) [Example 55, 2-(3,4-Dichloro-phenyl)-2-fluoro-N-(4-fluoro-3-trifluoromethyl-benzyl)-4-[4-(methanesulfonyl-methyl-amino)-piperidin-1-yl]-N-methyl-butyramide], under setting [1], the inhibition constant (Ki) was 23.4 nM.

In the case of `CC(CCN1CCC(NS(C)(=O)=O)CC1)(C(=O)NCc1ccc(C#N)cc1)c1ccc(Cl)c(Cl)c1` (centres unmarked) [Example 27, N-(4-Cyano-benzyl)-2-(3,4-dichloro-phenyl)-4-(4-methanesulfonyl-amino-piperidin-1-yl)-2-methyl-butyramide], the Ki under setting [1] was 263 nM.

With `CCN(C1CCN(CCC(C)(C(=O)N(C)Cc2cccc(Cl)c2)c2ccc(Cl)c(Cl)c2)CC1)S(C)(=O)=O` (centres unmarked) [Example 75, N-(3-Chloro-benzyl)-2-(3,4-dichloro-phenyl)-4-[4-(ethyl-methanesulfonyl-amino)-piperidin-1-yl]-2,N-dimethyl-butyramide], the Ki reads like this: under setting [1], 3.9 nM; under setting [2], 3.9 nM.

With `CCN(C1CCN(CCC(C)(C(=O)N[C@@H](CO)c2ccc(Cl)c(Cl)c2)c2ccc(Cl)c(Cl)c2)CC1)S(C)(=O)=O` (single isomer, unassigned; diastereoisomer 1) [Example 79, 2-(3,4-Dichloro-phenyl)-N-[1-(3,4-dichloro-phenyl)-2-hydroxy-ethyl]-4-[4-(ethyl-methanesulfonyl-amino)-piperidin-1-yl]-2-methyl-butyramide; diastereoisomer 1], the inhibition constant (Ki) runs as follows: under setting [1], 1.5 nM; under setting [2], 1.5 nM. Take `CN(Cc1ccc(Cl)cc1)C(=O)C(CCN1CCC(NS(C)(=O)=O)CC1)c1ccc(Cl)c(Cl)c1` (centres unmarked) [Example 37, N-(4-Chloro-benzyl)-2-(3,4-dichloro-phenyl)-4-(4-methanesulfonyl-amino-piperidin-1-yl)-N-methyl-butyramide]: the inhibition constant (Ki) under setting [1] was determined as 78.7 nM. As to `CN(Cc1ccc(F)c(C(F)(F)F)c1)C(=O)C(C)(CCN1CCC(N2CCCC2=O)CC1)c1ccc(Cl)c(Cl)c1` (single isomer, unassigned) [Example 119, (R or S)-2-(3,4-Dichloro-phenyl)-N-(4-fluoro-3-trifluoromethyl-benzyl)-2,N-dimethyl-4-[4-(2-oxo-pyrrolidin-1-yl)-piperidin-1-yl]-butyramide; hydrochloride], the inhibition constant (Ki) by setting is: under setting [1], 0.8 nM; under setting [2], 0.8 nM.

As to `CN(Cc1ccccc1Cl)C(=O)C(CCN1CCC(NS(C)(=O)=O)CC1)c1ccc(Cl)c(Cl)c1` (centres unmarked) [Example 41, N-(2-Chloro-benzyl)-2-(3,4-dichloro-phenyl)-4-(4-methanesulfonyl-amino-piperidin-1-yl)-N-methyl-butyramide], the inhibition constant Ki under setting [1] turned out to be 259 nM. The same measure, in the same setting: for `CN(Cc1ccc(Cl)c(C(F)(F)F)c1)C(=O)C(C)(CCN1CCC(NS(C)(=O)=O)CC1)c1ccc(Cl)c(Cl)c1` (centres unmarked) [Example 8, N-(4-Chloro-3-trifluoromethyl-benzyl)-2-(3,4-dichloro-phenyl)-4-(4-methanesulfonyl-amino-piperidin-1-yl)-2,N-dimethyl-butyramide] the value was 22.6 nM; for `CN(Cc1ccc(Cl)cc1)C(=O)C(C)(CCN1CCC(NS(C)(=O)=O)CC1)c1ccc(Cl)c(Cl)c1` (centres unmarked) [Example 26, N-(4-Chloro-benzyl)-2-(3,4-dichloro-phenyl)-4-(4-methanesulfonyl-amino-piperidin-1-yl)-2,N-dimethyl-butyramide], 26.5 nM. Turning to `CC[C@H](NC(=O)C(C)(CCN1CCC(N(CCOC)C(C)=O)CC1)c1ccc(Cl)c(Cl)c1)c1ccccc1` (stereo partly drawn) [Example 152, 4-{4-[Acetyl-(2-methoxy-ethyl)-amino]-piperidin-1-yl}-2-(3,4-dichloro-phenyl)-2-methyl-N-((S)-1-phenyl-propyl)-butyramide], the Ki is, setting by setting: under setting [1], 1.1 nM; under setting [2], 1.1 nM.

`CN(C1CCN(CCC(C)(C(=O)N[C@H](CO)c2ccc(Cl)c(Cl)c2)c2ccc(Cl)c(Cl)c2)CC1)S(C)(=O)=O` (single isomer, unassigned; diastereoisomer 2) [Example 50, 2-(3,4-Dichloro-phenyl)-N-[1-(3,4-dichloro-phenyl)-2-hydroxy-ethyl]-4-[4-(methanesulfonyl-methyl-amino)-piperidin-1-yl]-2-methyl-butyramide; diastereoisomer 2]: the Ki under setting [1] worked out at 52.1 nM. On to `CCN(C(C)=O)C1CCN(CCC(C)(C(=O)N[C@@H](CO)c2ccc(F)cc2)c2ccc(Cl)c(Cl)c2)CC1` (single isomer, unassigned; epimer 1) [Example 166], for which the Ki reads like this: under setting [1], 2.2 nM; under setting [2], 2.2 nM.

For `CCCN(C(C)=O)C1CCN(CCC(C)(C(=O)N[C@@H](CO)c2ccc(F)cc2)c2ccc(Cl)c(Cl)c2)CC1` (single isomer, unassigned; epimer 1) [Example 162], the inhibition constant (Ki) by setting is: under setting [1], 0.5 nM; under setting [2], 0.5 nM. For `CN(Cc1cccc(C(F)(F)F)c1)C(=O)C(C)(CCN1CCC(NS(C)(=O)=O)CC1)c1ccc(Cl)c(Cl)c1` (centres unmarked) [Example 28, 2-(3,4-Dichloro-phenyl)-4-(4-methanesulfonyl-amino-piperidin-1-yl)-2,N-dimethyl-N-(3-trifluoromethyl-benzyl)-butyramide], under setting [1], the inhibition constant Ki was found to be 21.7 nM. Turning to `CC(=O)N(C)C1CCN(CCC(C)(C(=O)NC(c2ccc(F)cc2)C(F)(F)F)c2ccc(Cl)c(Cl)c2)CC1` (centres unmarked) [Example 135, 4-[4-(Acetyl-methyl-amino)-piperidin-1-yl]-2-(3,4-dichloro-phenyl)-2-methyl-N-[2,2,2-trifluoro-1-(4-fluoro-phenyl)-ethyl]-butyramide], the Ki under setting [1] was determined as 12.6 nM. In the case of `CN(Cc1ccc(Cl)c(Cl)c1)C(=O)C(CCN1CCC(NS(C)(=O)=O)CC1)c1ccc(Cl)c(Cl)c1` (centres unmarked) [Example 34, N-(3,4-Dichloro-benzyl)-2-(3,4-dichloro-phenyl)-4-(4-methanesulfonyl-amino-piperidin-1-yl)-N-methyl-butyramide], the inhibitory constant (Ki) under setting [1] came out at 77.5 nM. Still for that read-out and setting: the same measure for `CN(Cc1cccc(Cl)c1)C(=O)C(F)(CCN1CCC(NS(C)(=O)=O)CC1)c1ccc(Cl)c(Cl)c1` (centres unmarked) [Example 65, N-(3-Chlorobenzyl)-2-(3,4-dichloro-phenyl)-2-fluoro-4-(4-methanesulfonyl-amino-piperidin-1-yl)-N-methyl-butyramide]: 307 nM; for `CN(Cc1cccc(Cl)c1)C(=O)C(CCN1CCC(NS(C)(=O)=O)CC1)c1ccc(Cl)c(Cl)c1` (centres unmarked) [Example 39, N-(3-Chloro-benzyl)-2-(3,4-dichloro-phenyl)-4-(4-methanesulfonyl-amino-piperidin-1-yl)-N-methyl-butyramide]: 213 nM. In the case of `CC(=O)NC1CCN(CCC(C)(C(=O)N[C@H](CO)c2ccc(F)cc2)c2ccc(Cl)c(Cl)c2)CC1` (single isomer, unassigned; diastereoisomer 2) [Example 155, 4-(4-Acetylamino-piperidin-1-yl)-2-(3,4-dichloro-phenyl)-N-[1-(4-fluoro-phenyl)-2-hydroxy-ethyl]-2-methyl-butyramide (diastereoisomer 2)], the Ki under setting [1] came to 13.8 nM. Consider `CN(Cc1ccc(-c2ccncc2)cc1)C(=O)C(C)(CCN1CCC(NS(C)(=O)=O)CC1)c1ccc(Cl)c(Cl)c1` (centres unmarked) [Example 20, 2-(3,4-Dichloro-phenyl)-4-(4-methanesulfonyl-amino-piperidin-1-yl)-2,N-dimethyl-N-(4-pyridin-4-yl-benzyl)-butyramide], for which, under setting [1], the Ki was determined as 203 nM.
